These results are taken from ChEMBL document CHEMBL1144629, “Synthesis and in vivo antihyperglycemic activity of nature-mimicking furanyl-2-pyranones in STZ-S model” (2007).

Type in all cases: functional
Parameters in all cases: scale not given: the % may be the effect or the level left

In test [1] the test system is Rattus norvegicus. The experiment in a line: Antihyperglycemic activity in STZ-induced diabetic Sprague-Dawley rat assessed as decrease in blood glucose at 100 mg/kg, po after 30 mins relative to control.
In test [2] the test system is Rattus norvegicus. The test can be described thus: Antihyperglycemic activity in STZ-induced diabetic Sprague-Dawley rat assessed as decrease in blood glucose at 100 mg/kg, po after 60 mins relative to control.
Test [3] deals with Rattus norvegicus. The experiment in a line: Antihyperglycemic activity in STZ-induced diabetic Sprague-Dawley rat assessed as decrease in blood glucose at 100 mg/kg, po after 90 mins relative to control.
In test [4] the test system is Rattus norvegicus. The experiment in a line: Antihyperglycemic activity in STZ-induced diabetic Sprague-Dawley rat assessed as decrease in blood glucose at 100 mg/kg, po after 120 mins relative to control.
For test [5], the system named is Rattus norvegicus. The experiment in a line: Antihyperglycemic activity in STZ-induced diabetic Sprague-Dawley rat assessed as decrease in blood glucose at 100 mg/kg, po after 180 mins relative to control.
The subject of test [6] is Rattus norvegicus. The test can be described thus: Antihyperglycemic activity in STZ-induced diabetic Sprague-Dawley rat assessed as decrease in blood glucose at 100 mg/kg, po after 240 mins relative to control.
For test [7], the system named is Rattus norvegicus. The experiment in a line: Antihyperglycemic activity in STZ-induced diabetic Sprague-Dawley rat assessed as decrease in blood glucose at 100 mg/kg, po after 5 hrs relative to control.
Test [8] relates to Rattus norvegicus. The test can be described thus: Antihyperglycemic activity in STZ-induced diabetic Sprague-Dawley rat assessed as decrease in blood glucose at 100 mg/kg, po after 24 hrs relative to control.

As for `CSc1cc(-c2ccco2)oc(=O)c1C#N`, the Activity is 11.8% in the test with Rattus norvegicus [1]; 16.5% with Rattus norvegicus [2]; 19.6% with Rattus norvegicus [3]; 19.8% with Rattus norvegicus [4]; 8.1% in the test on Rattus norvegicus [5]; 2.3% with Rattus norvegicus [6]. Besides, the Activity is 6.8% in the test on Rattus norvegicus [7] and 6.7% with Rattus norvegicus [8].
Take `Cc1cc(-c2cc(N3CCCC3)c(C#N)c(=O)o2)c(C)o1`: the Activity with Rattus norvegicus [1] came out at 12.5%; in the test with Rattus norvegicus [2] it was 17.3%; with Rattus norvegicus [3], 20.9%; in the test with Rattus norvegicus [4], 20.9%; in the test on Rattus norvegicus [5], 7.8%; with Rattus norvegicus [6] it was 1.2%. For the same compound, the results for the Activity in the test with Rattus norvegicus [7] and in the test with Rattus norvegicus [8] were 4.5% and 10.5%, respectively.
Take `Cc1cc(-c2cc(N3CCCCC3)c(C#N)c(=O)o2)c(C)o1`: the Activity in the test with Rattus norvegicus [1] is on record as 8.6%; in the test with Rattus norvegicus [2], 9.4%; in the test on Rattus norvegicus [3] it was 6.8%; in the test on Rattus norvegicus [4], 8.7%; in the test on Rattus norvegicus [5] it was 0.8%; with Rattus norvegicus [6], 1%. The Activity amounted to 5.2% in the test with Rattus norvegicus [7] and 19.7% in the test on Rattus norvegicus [8].
Consider `Cc1cc(-c2cc(N3CCOCC3)c(C#N)c(=O)o2)c(C)o1`, for which the Activity in the test with Rattus norvegicus [1] worked out at 16.6%; in the test with Rattus norvegicus [2], 18.4%; with Rattus norvegicus [3], 24%; with Rattus norvegicus [4], 29%; in the test with Rattus norvegicus [5], 18.5%; with Rattus norvegicus [6] it was 20.7%. Besides, the values for the Activity in the test on Rattus norvegicus [7] and with Rattus norvegicus [8] were 20.3% and 29.7%, respectively.
Regarding `Cc1cc(-c2cc(N3CCC(C)CC3)c(C#N)c(=O)o2)c(C)o1`, the Activity with Rattus norvegicus [1] turned out to be 12.5%; in the test on Rattus norvegicus [2], 16.3%; with Rattus norvegicus [3] it was 20.9%; in the test with Rattus norvegicus [4], 16.8%; in the test with Rattus norvegicus [5], 2.6%; in the test with Rattus norvegicus [6] it was 2.8%. For the same compound, the Activity with Rattus norvegicus [7] stood at 5.5%; with Rattus norvegicus [8], 4.2%.
Regarding `CSc1cc(-c2cc(C)oc2C)oc(=O)c1C#N`, the Activity in the test with Rattus norvegicus [1] came out at 12.6%; in the test with Rattus norvegicus [2], 16.2%; in the test on Rattus norvegicus [3], 21.2%; in the test with Rattus norvegicus [4], 16.5%; in the test with Rattus norvegicus [5], 2.3%; in the test with Rattus norvegicus [6], 2.5%. Besides, the Activity in the test with Rattus norvegicus [7] is on record as 5.2%; in the test on Rattus norvegicus [8] it was 4.5%.
With `CSc1cc(-c2cc(C)oc2C)oc(=O)c1C(N)=O`, the Activity in the test on Rattus norvegicus [1] worked out at 13.2%; in the test with Rattus norvegicus [2], 28.8%; in the test with Rattus norvegicus [3], 33%; with Rattus norvegicus [4] it was 29.4%; with Rattus norvegicus [5], 16.3%; with Rattus norvegicus [6], 12.6%. Moreover, the Activity came to 11.2% in the test on Rattus norvegicus [7] and 23.9% with Rattus norvegicus [8].
As for `CSc1cc(-c2ccco2)oc(=O)c1C(N)=O`, the Activity in the test on Rattus norvegicus [1] came to 8.5%; in the test with Rattus norvegicus [2], 9.6%; with Rattus norvegicus [3], 6.3%; in the test on Rattus norvegicus [4] it was 8.9%; in the test with Rattus norvegicus [5] it was 1.2%; in the test on Rattus norvegicus [6] it was 1.3%. Besides, the values for the Activity in the test with Rattus norvegicus [7] and in the test with Rattus norvegicus [8] were 5.52% and 19.3%, respectively.
Turning to `N#Cc1c(N2CCOCC2)cc(-c2ccco2)oc1=O`, the Activity with Rattus norvegicus [1] is reported as 13.1%; in the test on Rattus norvegicus [2], 15.9%; in the test with Rattus norvegicus [3], 19.8%; in the test on Rattus norvegicus [4] it was 17.4%; with Rattus norvegicus [5], 1.8%; with Rattus norvegicus [6], 5.2%. Moreover, the values for the Activity in the test on Rattus norvegicus [7] and in the test with Rattus norvegicus [8] were 9.8% and 0.5%, respectively.
Consider `CN1CCN(c2cc(-c3ccco3)oc(=O)c2C#N)CC1`, for which the Activity in the test on Rattus norvegicus [1] is recorded as 12.5%; in the test on Rattus norvegicus [2] it was 17.5%; with Rattus norvegicus [3], 17.3%; in the test with Rattus norvegicus [4], 22.8%; in the test on Rattus norvegicus [5] it was 16.8%; with Rattus norvegicus [6], 14.6%. For the same compound, the Activity was 12.8% in the test on Rattus norvegicus [7] and 20% in the test on Rattus norvegicus [8].
With `N#Cc1c(N2CCN(c3ccccc3)CC2)cc(-c2ccco2)oc1=O`, the Activity in the test with Rattus norvegicus [1] is 11.8%; in the test on Rattus norvegicus [2] it was 15.7%; with Rattus norvegicus [3] it was 20.2%; in the test with Rattus norvegicus [4] it was 15.9%; in the test on Rattus norvegicus [5] it was 1.9%; in the test on Rattus norvegicus [6] it was 3.9%. Moreover, the Activity with Rattus norvegicus [7] was determined as 6.1%; with Rattus norvegicus [8], 2.5%.
Turning to `N#Cc1c(N2CCCCC2)cc(-c2ccco2)oc1=O`, the Activity with Rattus norvegicus [1] is 12.8%; in the test with Rattus norvegicus [2], 17.5%; with Rattus norvegicus [3] it was 21.1%; in the test with Rattus norvegicus [4] it was 21.3%; in the test with Rattus norvegicus [5], 7.5%; in the test with Rattus norvegicus [6], 1.4%. The Activity is 4.8% in the test with Rattus norvegicus [7] and 10.4% with Rattus norvegicus [8].
Consider `CN(C)C(=N)NC(=N)N` [METFORMIN], for which the Activity with Rattus norvegicus [1] was 15.9%; with Rattus norvegicus [2], 18.2%; in the test with Rattus norvegicus [3], 24.5%; in the test on Rattus norvegicus [4], 29.2%; in the test with Rattus norvegicus [5], 18.7%; in the test with Rattus norvegicus [6] it was 21.1%. Moreover, the Activity in the test with Rattus norvegicus [7] stood at 20.7%; with Rattus norvegicus [8], 30%.
